Measurements from patent USRE30241E, “Esters of 3-(hydroxy or hydroxymethyl)-4-hydroxyphenyl aminomethyl ketones” (Sterling Drug Inc., priority 1970, dated 1980).

Columns and labels:
[1] = test system: carbachol- or histamine-induced bronchoconstriction; experiment: Bronchodilator Test Method I, anesthetized dog, intravenous activity; format: in vivo; conditions: Canis lupus familiaris, read-out: Bronchodilatation; for inhibition in vivo at 0.07 mg/kg: 70 mcg/kg i.v.; for inhibition in vivo at 0.14 mg/kg: 140 mcg/kg i.v.; for inhibition in vivo at 0.28 mg/kg: 280 mcg/kg i.v.
Outline: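 Pentobarbital-anesthetized (30 mg/kg i.v.), open-chest, artificially ventilated dogs were given i.v. carbachol (4-6 µg/kg) or histamine diphosphate (35-45 µg/kg). Test compound was given i.v. mixed with, after, or 1-10 min before the constrictor.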

[2] = test system: carbachol- or histamine-induced bronchoconstriction; experiment: Bronchodilator Test Method I, anesthetized dog, intraduodenal activity; format: in vivo; conditions: Canis lupus familiaris, read-out: Bronchodilation; for inhibition in vivo at 0.07 mg/kg: 70 mcg/kg (salt) intraduodenal; for inhibition in vivo at 0.14 mg/kg: 140 mcg/kg (salt) intraduodenal; for inhibition in vivo at 0.28 mg/kg: 280 mcg/kg (salt) intraduodenal
Outline: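 Pentobarbital-anesthetized (30 mg/kg i.v.) open-chest dogs of 9-18 kg, artificially ventilated; airway pressure recorded via tracheal cannula transducer. Test solution injected intraduodenally; from 5 min, i.v. carbachol (4-6 μg/kg) or histamine diphosphate (35-45 μg/kg) challenges every 30-60 min gauged degree and duration of bronchodilation.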

[3] = test system: guinea pig bronchioles constricted by carbachol; experiment: Bronchodilator Test Method II, in vitro perfused guinea pig lung
Method: In this method bronchodilator activity in vitro was determined by testing the effect of graded doses of the test compounds on guinea pig bronchioles constricted by carbachol, using the technique reported by Sollman and von Oettingen, Proc. Soc, Exp. Biol. Med., 25,692 (1928) as modified by Tainter, Pedden, and James, J. Pharm. Exp. Ther., 51, 371 (1934) and by Luduena, von Euler, Tullar, and Lands, Arch. intern. Pharmacol., III, 392 (1957).

heart rate = experiment: Cardiovascular studies: effect on the heart rate in the anesthetized dog; format: in vivo
Outline: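 Anesthetized dogs, mostly spontaneously breathing, some open-chest, given rapid intravenous injections. Heart rate by electrocardiograph with blood pressure recorded simultaneously, every 0.5-1 minute for 10 minutes then every 2-5 minutes until recovery; several doses or compounds sometimes tested alternately in one dog.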

diastolic blood pressure = experiment: Effect on diastolic blood pressure in the anesthetized dog; format: in vivo
Method: The effect of a rapid intravenous injection on the heart rate the heart rate was conducted in anesthetized dogs under normal respiration. A few open-chest dogs were also tested. Increase in heart rate was measured by using an electrocardiograph attached to the dog. Readings were taken every 0.5-1 minute for the first 10 minutes and every 2-5 minutes thereafter until recovery. In some cases, several doses and more than one compound were tested alternately in the same dog. The blood pressure effect was simultaneously recorded.

[4] = Solubility and pH of salts; conditions: dimethyl sulfoxide, organic solvent or mixture

SMILES: Cc1ccc(C(=O)Oc2ccc(C(O)CNC(C)(C)C)cc2OC(=O)c2ccc(C)cc2)cc1 (stereo not drawn) [Example 30, 3,4-bis(p-toluyloxy)-alpha-(tert-butylaminomethyl)benzyl alcohol methanesulfonate]
- inhibition in vivo at 0.07 mg/kg ([1]; 5 min, 5 min): 54%
- inhibition in vivo at 0.14 mg/kg ([1]; 5 min, 5 min): 65%
- inhibition in vivo at 0.28 mg/kg ([1]; 5 min, 5 min): 83%
- inhibition in vivo at 0.07 mg/kg ([1]; 0.5 h, 30 min): 63%
- inhibition in vivo at 0.14 mg/kg ([1]; 0.5 h, 30 min): 76%
- inhibition in vivo at 0.28 mg/kg ([1]; 0.5 h, 30 min): 88%
- inhibition in vivo at 0.07 mg/kg ([1]; 1 h, 60 min): 61%
- inhibition in vivo at 0.14 mg/kg ([1]; 1 h, 60 min): 69%
- inhibition in vivo at 0.28 mg/kg ([1]; 1 h, 60 min): 75%
- inhibition in vivo at 0.07 mg/kg ([1]; 2 h, 120 min): 52%
- inhibition in vivo at 0.14 mg/kg ([1]; 2 h, 120 min): 55%
- inhibition in vivo at 0.28 mg/kg ([1]; 2 h, 120 min): 72%
- inhibition in vivo at 0.14 mg/kg ([1]; 3 h, 180 min): 62%
- inhibition in vivo at 0.28 mg/kg ([1]; 3 h, 180 min): 64%
- inhibition in vivo at 0.07 mg/kg ([1]; 4 h, 240 min): 37%
- inhibition in vivo at 0.28 mg/kg ([1]; 4 h, 240 min): 50%
- inhibition in vivo at 0.14 mg/kg ([1]; 4.5 h, 270 min): 42%
- inhibition in vivo at 0.07 mg/kg ([2]; 10 min, 10 min, mean of 3 dogs): 38%
- inhibition in vivo at 0.14 mg/kg ([2]; 10 min, 10 min): 30%
- inhibition in vivo at 0.28 mg/kg ([2]; 10 min, 10 min): 75%
- inhibition in vivo at 0.07 mg/kg ([2]; 0.5 h, 30 min): 45%
- inhibition in vivo at 0.14 mg/kg ([2]; 0.5 h, 30 min): 35%
- inhibition in vivo at 0.28 mg/kg ([2]; 0.5 h, 30 min): 71%
- inhibition in vivo at 0.07 mg/kg ([2]; 1 h, 60 min): 42%
- inhibition in vivo at 0.14 mg/kg ([2]; 1 h, 60 min): 36%
- inhibition in vivo at 0.28 mg/kg ([2]; 1 h, 60 min, mean of 3 dogs): 64%
- inhibition in vivo at 0.07 mg/kg ([2]; 2 h, 120 min, mean of 3 dogs): 42%
- inhibition in vivo at 0.14 mg/kg ([2]; 2 h, 120 min): 45%
- inhibition in vivo at 0.28 mg/kg ([2]; 2 h, 120 min): 56%
- inhibition in vivo at 0.07 mg/kg ([2]; 3 h, 180 min): 42%
- inhibition in vivo at 0.14 mg/kg ([2]; 3 h, 180 min): 40%
- inhibition in vivo at 0.28 mg/kg ([2]; 3 h, 180 min): 50%
- inhibition in vivo at 0.07 mg/kg ([2]; 4 h, 240 min, mean of 3 dogs): 25%
- inhibition in vivo at 0.14 mg/kg ([2]; 4 h, 240 min): 47%
- inhibition in vivo at 0.28 mg/kg ([2]; 4 h, 240 min, mean of 3 dogs): 45%
- inhibition in vivo at 0.28 mg/kg ([2]; 5 h, 300 min, mean of 3 dogs): 37%
- ED50 ([3]; carbachol (Doryl) 1:5 million): 3.2 µg (base)
- Duration, Mean ([3]; dose 10 mcg (base)): 60 ± 9.6 min
- Mean Maximal Increase in the Heart Rate (heart rate; 70 mcg/kg (salt) i.v.): 9%
- Mean Maximal Increase in the Heart Rate (heart rate; 140 mcg/kg (salt) i.v.): 15%
- Mean Maximal Increase in the Heart Rate (heart rate; 280 mcg/kg (salt) i.v.): 28%
- Mean Decrease in Diastolic Blood Pressure (diastolic blood pressure; 70 meg/kg (salt) i.v.): 2%
- Mean Decrease in Diastolic Blood Pressure (diastolic blood pressure; 140 meg/kg (salt) i.v.): 11%
- Mean Decrease in Diastolic Blood Pressure (diastolic blood pressure; 280 meg/kg (salt) i.v.): 11.5%
- solubility [4]: ≥ 10 mg/mL
